Assay results: PMC9313945, “Peptide Aggregation Induced Immunogenic Rupture (PAIIR)” (Advanced Science, 2022)

Assays:
OVCAR‐8 cells [1] = assay: Live-dead imaging of OVCAR-8 cells; type: cell-based, human; details: OVCAR-8, 0.5 mM peptide, 6 h, RPMI with 10% FBS; negative peptide added first, then positive
Method: We used the human ovarian cancer cell line OVCAR‐8 as our initial model to identify the effect of the peptides on cells. All cell culture experiments were performed in an RPMI cell culture medium with 10% FBS. At 0.5 mM (i.e., above the overall CAC), the individual peptides mixed on the cells by promptly adding the first negative, then positive counterparts. The viability of the cells was measured for 6h through live‐dead imaging (Figure 3A). […] Because the peptides, if aggregate, form one‐dimensional structures, the shape of the aggregates is not likely to be effective on the action of the peptides. [II] has the lowest CAC and highest ordered aggregation (Figure 2B–D). Additionally, the equilibrium time of [II] aggregations was the shortest among the tried groups (Table 1 ). These all indicate that [II] peptides have the highest affinity to each other, which creates aggregations strong and fast enough to induce cell death.
To understand the effect of peptide aggregates versus peptides alone on the cell death identified with [WW] and [II], we performed a live/dead assay with individual peptides at 0.5 mM after 6h (Figure 3A). […] Similarly, the negative [WW] […] Positive charged peptides containing W are promiscuous residues for membrane damaging peptides, possibly because of W's “anchoring” role; W is abundant in membrane proteins, particularly near the lipid–water interface.^[ [37], [38] ^]
Positively and negatively charged self‐assembling peptides were mixed 30 min prior to experiment except where otherwise stated. The viability of the cell lines was measured by using CellTiter‐Glo 2.0 Reagent (Promega G9248). The luminescent signal was measured in accordance with the manufacturer's instructions. Measurements were carried out with BioTek Neo2SM microplate reader and relative viability was calculated. Live‐Dead assay was carried out using Viability/Cytotoxicity Assay kit (BIOTIUM 30002). After peptide treatment, cells were treated with calcein and ethidium homodimer in accordance with the manufacturer's instructions. […]

OVCAR‐8 cells [2] = assay: Caspase-3 and GSDME cleavage, western blot; type: cell-based, human; details: OVCAR-8, 50 µM cisplatin for 24 h
Source text: Regulated cell death via an inducer is concentration and time‐dependent and therefore controllable. On the other hand, unregulated cell death cannot be controlled to the same extent as it mainly results from mechanical forces or temperature. The unregulated cell death releases an instantaneous burst of DAMPs, while the DAMP release from regulated cell death is prolonged. Therefore, regulated ICD is desired for a controlled immune response. Regulated necrotic cell deaths are caspase‐dependent.^[ [50], [51] ^] To identify whether [II]‐induced cell death is regulated, we analyzed the cleavage of caspase‐3, a known mediator of apoptosis, and GSDME mediated pyroptosis (regulated necrosis).^[ [2], [52] ^] We compared the caspase‐3 cleavage among different cell death modalities; we used cisplatin ‐ a known apoptosis inducer in the OVCAR‐8 cell line.^[ [53] ^] We also used heat treatment to induce multiple cell death modalities, including necrosis, apoptosis, and necroptosis.^[ [54] ^] Additionally, we applied a freeze/thaw (F/T) method, a common technique to induce unregulated necrosis.^[ [55] ^] […]
Protein samples were diluted in Laemmli buffer and boiled for 5 min at 96 °C. […] Lastly, western blotting luminol reagent solution was added on top of the membranes, and chemiluminescence signal was detected by Azure c600 Imaging Biosystems.

| Molecule | Cell viability / cell death, live-dead imaging (OVCAR‐8 cells [1]) | Caspase-3 cleavage (OVCAR‐8 cells [2]) |
| --- | --- | --- |
| KFFIIK | does not cause cell death |  |
| KFFWWK | induced the cell death |  |
| EFFWWE | did not show any cell death |  |
| N.N.[Cl][Pt][Cl] [Cisplatin, cisplatin] |  | showed caspase‐3 cleavage |
